Experimental findings from ChEMBL document CHEMBL1201862, “PubChem BioAssay data set” (2004) are described below.

Assay in all cases: NCI anticancer screen, dose series, 48 h
Assay [1] concerns SF-295.
The test system of assay [2] is IGROV-1.
Assay [3] relates to NCI-H226.
Assay [4] concerns HOP-62.
Assay [5] relates to UACC-62.
Assay [6] relates to RPMI-8226.
The subject of assay [7] is MDA-N.
For assay [8], the system named is SF-268.
Assay [9] deals with SK-MEL-2.
In assay [10] the test system is CAKI-1.
The subject of assay [11] is SNB-19.
The subject of assay [12] is NCI-H23.
Assay [13] concerns NCI-H522.
Assay [14] has as its system OVCAR-3.
For assay [15], the system named is SNB-75.
For assay [16], the system named is MDA-MB-435.
Assay [17] deals with 786-0.
Assay [18] has as its system SK-MEL-28.
The subject of assay [19] is K562.
The test system of assay [20] is HCT-116.

The structures appear in SMILES notation.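 Growth conditions: 96-well plates. Treatment: test compound, 48 hours, 5 concentrations. Analysis: linear interpolation between bracketing concentrations; unreached endpoints set to highest concentration. Abbreviation: GI50, concentration required for 50% inhibition of growth.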 Calls of active or inactive are those of the source. Rule as the data show it: active = GI50 up to about 1.1 µM and inactive = higher.

With `O=C1c2ccccc2-c2ccc(NC(=O)C3CCCCC3C(=O)O)cc21` (stereo not given), the GI50 in [1], in assay [2], in [3], in [4], in assay [5] and in assay [6] was > 100 µM (inactive) throughout. Further, the GI50 in [7], in assay [8], in assay [9], in [10], in [11] and in assay [12] was > 100 µM (inactive) in each case. The GI50 in assay [13], in assay [14], in assay [15], in [16], in assay [17] and in [18] was > 100 µM (inactive) in each case. Moreover, the GI50 in [19] and in [20] was > 100 µM (inactive) throughout.
Consider `Cc1cc2cc3c(O)nc(O)nc3nc2cc1C`, for which the GI50 in assay [1], in assay [2], in assay [3], in [4], in assay [5] and in [6] was > 100 µM (inactive) throughout. Besides, the GI50 in assay [7], in assay [8], in [9], in [10], in assay [11] and in [12] was > 100 µM (inactive) in each case. Further, the GI50 was > 100 µM (inactive) in assay [13]; > 100 µM (inactive) in [14]; 27.6 µM (inactive) in assay [15]; > 100 µM (inactive) in assay [16]; > 100 µM (inactive) in assay [17]; > 100 µM (inactive) in [18]. The GI50 in assay [19] and in [20] was > 100 µM (inactive) each time.
On to `CC(=O)OCC1OC(n2c3c(cc(C#N)c2=S)CCCCC3)C(OC(C)=O)C(OC(C)=O)C1OC(C)=O` (stereo not given), for which the GI50 in [1] is > 100 µM (inactive); in assay [2], > 100 µM (inactive); in assay [3], > 100 µM (inactive); in assay [4], > 100 µM (inactive); in assay [5], 93.8 µM (inactive); in [6], > 100 µM (inactive). The GI50 in assay [7], in assay [8], in assay [9], in assay [10], in [11] and in assay [12] was > 100 µM (inactive) each time. Further, the GI50 was > 100 µM (inactive) in assay [13]; > 100 µM (inactive) in [14]; 99.1 µM (inactive) in assay [15]; > 100 µM (inactive) in [16]; > 100 µM (inactive) in assay [17]; > 100 µM (inactive) in [18]. The GI50 in assay [19] and in assay [20] was > 100 µM (inactive) throughout.
Turning to `CCC1c2[nH]c3ccccc3c2C[C@H]2C(=O)NC(C)C(=O)N12` (stereo not given in full), the GI50 in assay [1], in [2], in assay [3], in [4], in assay [5] and in assay [6] was > 100 µM (inactive) each time. The GI50 in assay [7], in [8], in assay [9], in assay [10], in assay [11] and in assay [12] was > 100 µM (inactive) throughout. The GI50 in [13] was > 100 µM (inactive); in [14] it was > 100 µM (inactive); in assay [15], 23.7 µM (inactive); in assay [16] it was > 100 µM (inactive); in [17], > 100 µM (inactive); in assay [18] it was > 100 µM (inactive). Besides, the GI50 in [19] and in assay [20] was > 100 µM (inactive) throughout.
As for `CC(O)c1cc2c(s1)C(=O)c1ccsc1C2=O` (stereo not given), the GI50 in assay [1] was 0.0467 µM (active); in assay [2], 0.468 µM (active); in assay [3], 0.48 µM (active); in [4], 0.142 µM (active); in assay [5], 0.0262 µM (active); in [6] it was 0.123 µM (active). Moreover, the GI50 in [7] is 0.0139 µM (active); in [8] it was 0.162 µM (active); in [9], 0.126 µM (active); in [10], 0.695 µM (active); in assay [11], 0.241 µM (active); in [12], 0.0169 µM (active). The GI50 in assay [13] is 0.117 µM (active); in assay [14] it was 0.0522 µM (active); in [15] it was 0.0649 µM (active); in assay [16], < 0.01 µM (active); in [17] it was 0.665 µM (active); in assay [18], 0.0216 µM (active). Moreover, the figures for the GI50 in [19] and in [20] were 0.122 µM (active) and 0.21 µM (active), respectively.
`C=C1C(=O)C2=CC1CCC(=O)C1(C)CCC(OC(C)=O)C(C)(C)C1CC2O` (stereo not given): the GI50 in assay [1] was 9.31 µM (inactive); in [2], 3.03 µM (inactive); in assay [3], 7.76 µM (inactive); in assay [4], 8.45 µM (inactive); in assay [5], 2.27 µM (inactive); in assay [6], 2.53 µM (inactive). In addition, the GI50 in assay [7] was 1.4 µM (inactive); in assay [8], 3.4 µM (inactive); in assay [9] it was 5 µM (inactive); in assay [10], 1.76 µM (inactive); in assay [11], 3.58 µM (inactive); in assay [12], 2.64 µM (inactive). The GI50 was 0.522 µM (active) in [13]; 3.73 µM (inactive) in assay [14]; 8.32 µM (inactive) in assay [15]; 3.24 µM (inactive) in [16]; 3.01 µM (inactive) in assay [17]; 3.66 µM (inactive) in assay [18]. The GI50 is 0.352 µM (active) in assay [19] and 1.6 µM (inactive) in [20].
`C/C1=C/C2OC(=O)C3(C)C2C(CC2(C)OC1=CC2=O)OC3(O)C(C)C` (stereo not given): the GI50 in [1] is 29.4 µM (inactive); in [2] it was 35.3 µM (inactive); in assay [3], 33.5 µM (inactive); in assay [4], 41.6 µM (inactive); in [5] it was 20.6 µM (inactive); in assay [6], 21.8 µM (inactive). The GI50 in assay [7] is 53.7 µM (inactive); in assay [8] it was 38.9 µM (inactive); in [9] it was 29.4 µM (inactive); in assay [10] it was 30.5 µM (inactive); in [11], 42.5 µM (inactive); in assay [12], 15 µM (inactive). For the same compound, the GI50 in [13] is 14.8 µM (inactive); in [14], 31.2 µM (inactive); in assay [15], > 61.1 µM (inactive); in assay [16] it was 38.3 µM (inactive); in assay [17], 26.1 µM (inactive); in [18], 40.5 µM (inactive). Moreover, the GI50 in assay [19] is 32.7 µM (inactive); in [20], > 61.1 µM (inactive).
Turning to `OC(c1cc(C23CC4CC(CC(C4)C2)C3)nc2c(Cl)cc(Cl)cc12)C1CCCCN1` (stereo not given), the GI50 in assay [1] was 1.67 µM (inactive); in assay [2], 1.77 µM (inactive); in assay [3], 2.07 µM (inactive); in assay [4], 1.53 µM (inactive); in assay [5], 1.76 µM (inactive); in assay [6], 1.77 µM (inactive). For the same compound, the GI50 in assay [7] was 1.68 µM (inactive); in assay [8], 1.79 µM (inactive); in assay [9], 1.87 µM (inactive); in assay [10] it was 1.69 µM (inactive); in assay [11] it was 1.6 µM (inactive); in assay [12], 1.85 µM (inactive). The GI50 is 1.57 µM (inactive) in assay [13]; 1.78 µM (inactive) in assay [14]; 1.73 µM (inactive) in assay [15]; 1.67 µM (inactive) in assay [16]; 1.57 µM (inactive) in assay [17]; 2.06 µM (inactive) in [18]. Besides, the GI50 in [19] is 1.51 µM (inactive); in [20] it was 1.36 µM (inactive).
For the compound `O=C1c2ccccc2C(=O)c2oc(Br)cc21`, the GI50 was 0.269 µM (active) in assay [1]; 1.24 µM (inactive) in assay [2]; 1.41 µM (inactive) in assay [3]; 1.69 µM (inactive) in assay [4]; 0.544 µM (active) in assay [5]; 1.75 µM (inactive) in assay [6]. Besides, the GI50 in [7] was 0.132 µM (active); in assay [8], 1.87 µM (inactive); in assay [9] it was 0.578 µM (active); in assay [10], 1.76 µM (inactive); in assay [11] it was 1.5 µM (inactive); in [12], 0.244 µM (active). The GI50 was 1.55 µM (inactive) in assay [13]; 1.02 µM (active) in assay [14]; 0.256 µM (active) in assay [15]; 0.159 µM (active) in assay [16]; 1.57 µM (inactive) in [17]; 0.34 µM (active) in assay [18]. The GI50 in assay [19] was 2.12 µM (inactive); in assay [20] it was 1.36 µM (inactive).
Consider `Cc1ccc(C)n1-c1ccccc1C1C=CN(C(=O)OC(C)(C)C)C=C1`, for which the GI50 in assay [1] is 30 µM (inactive); in assay [2], 31.4 µM (inactive); in assay [3], 14.1 µM (inactive); in assay [4] it was 31.4 µM (inactive); in [5] it was 25.8 µM (inactive); in [6], 20.4 µM (inactive). Also, the GI50 in assay [7] was 46.2 µM (inactive); in assay [8] it was 33.6 µM (inactive); in assay [9], 16.9 µM (inactive); in [10], 33.3 µM (inactive); in [11] it was 47.6 µM (inactive); in assay [12] it was 27.5 µM (inactive). Besides, the GI50 in assay [13] was 16.6 µM (inactive); in assay [14], 17.8 µM (inactive); in assay [15], 13.5 µM (inactive); in assay [16], 36.2 µM (inactive); in assay [17] it was 31.8 µM (inactive); in assay [18] it was 44.9 µM (inactive). Further, the GI50 in assay [19] is 32.3 µM (inactive); in assay [20] it was 15 µM (inactive).
